Measurements: patent publication US8084457B2, “Pharmaceutically active 4,6-disubstituted aminopyrimidine derivatives as modulators of protein kinases” (Lead Discovery Center GmbH, priority 2003, dated 2011)

What was measured:
RSK1 = RSK1 (Homo sapiens, UniProt Q15418); test: General kinase assay, selectivity panel: RSK1; type: biochemical; details: 10 μM of compound, in comparison to DMSO (0% inhibition)
Method: The inhibitory effect of compounds according to the present invention on the activity of protein kinases, depicted in Table 1, can be measured according to the following protocol:
Pipettinq Sequence: • 1) Add 10 μl 4 fold concentrated Substrate+4 fold concentrated ATP in 3 fold concentrated Reaction Buffer to each well of Assay Plate • 2) Add 10 μl 4 fold concentrated inhibitor in 4% DMSO in H2O to each well except to C− and C+ wells • 3) Add 10 μl 4% DMSO in H2O to C− and C+ wells • 4) Add 10 μl 500 mM EDTA in H2O to − wells • 5) Add 10 μl 50 μCi/ml Adenosine 5′-[γ-^33P]triphosphate in H2O to each well • 6) Add 10 μl 4 fold concentrated kinase in Reaction Buffer to each well • 7) Incubate 1 hr at room temperature • 8) Add 10 μl 50 mM EDTA in H2O to each well except to C− wells • 9) Prepare MAPH plates by adding 200 μl 0.75% H3PO4 to each well • 10) Exhaust 0.75% H3PO4 using Millipore vacuum station • 11) Add 60 μl 0.75% H3PO4 to each well of MAPH Filter Plate • 12) Transfer 30 μl sample per well from Assay Plate to corresponding well of MAPH Filter Plate • 13) Incubate 30 min at room temperature • 14) Wash each well of MAPH Filter Plates 3× with 200 μl 0.75% H3PO4 using Millipore vacuum station. • 15) Add 20 μl Scintillation Liquid to each well of MAPH Filter Plate • 16) Seal MAPH Filter Plate • 17) Store MAPH Filter Plate 30 min in darkness • 18) Quantify radioactivity
(§1) The activity of these protein kinases is depicted as % inhibition in the presence of 10 μM of compound in comparison to DMSO (0% inhibition).

PDGFR = test: General kinase assay, selectivity panel: PDGFR; type: biochemical; details: 10 μM of compound, in comparison to DMSO (0% inhibition)
Outline: (§2)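 Radiometric filter-binding kinase assay with [γ-33P]ATP plus substrate, 1 h at room temperature, stopped with EDTA. Phosphorylated substrate captured on phosphocellulose filters and counted by scintillation. Values are % inhibition at 10 µM compound relative to DMSO (0%).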

CDK2/CyclinA = biological target: T1, CDK2/CyclinA (Homo sapiens, UniProt P24941); test: Kinase assay determining CDK2/CyclinA activity; type: biochemical
T1 construct: purchased Proqinase
Method: (§3) Kinase Assays Determining CDK2/CyclinA and CDK5/p35 Activity:
(§4) Kinase assays were performed as described by the manufacturers recommendations (Proqinase for CDK2/CyclinA and Upsate for CDK5/p35).

CDK1 = CDK1 (Homo sapiens, UniProt P06493); test: General kinase assay, selectivity panel: CDK1; type: biochemical; details: 10 μM of compound, in comparison to DMSO (0% inhibition)
Outline: as §2

p56 Lck = p56 Lck (Homo sapiens, UniProt P06239); test: General kinase assay, selectivity panel: p56 Lck; type: biochemical; details: 10 μM of compound, in comparison to DMSO (0% inhibition)
Outline: as §2

c-Kit = c-Kit (Homo sapiens, UniProt P10721); test: General kinase assay, selectivity panel: c-Kit; type: biochemical; details: 10 μM of compound, in comparison to DMSO (0% inhibition)
Outline: as §2

PM1 cells = test: Growth assay using Alamar Blue; type: cell-based
Method: Growth Assay Using Alamar Blue™:
PM1 cells were seeded in 12-well plates at a density of 1.5×10^5 per well with RPMI 1640 containing 10% FCS (fetal calf serum), 1% L-Glutamine and 1% Na-Pyruvate (Sigma). Cells were incubated with compound for 2-3 days (37° C., 6% CO2) followed by subsequent splitting and renewing of compound-containing medium. At each of these time points an aliquot of cells served as data point for relative growth (given in % of the DMSO control [=100%]). The cell number was determined by addition of 10 μL Alamar Blue™ (Biozol) to 100 μL cell aliquots following the manufacturer's instructions.

GSK-3β = GSK-3β (Homo sapiens, UniProt P49841); test: General kinase assay, selectivity panel: GSK-3β; type: biochemical; details: 10 μM of compound, in comparison to DMSO (0% inhibition)
Outline: as §2

EGFR = EGFR (Homo sapiens, UniProt P00533); test: General kinase assay, selectivity panel: EGFR; type: biochemical; details: 10 μM of compound, in comparison to DMSO (0% inhibition)
Outline: as §2

Abl = Abl (Homo sapiens, UniProt P00519); test: General kinase assay, selectivity panel: Abl; type: biochemical; details: 10 μM of compound, in comparison to DMSO (0% inhibition)
Outline: as §2

CDK9 = biological target: T2, CDK9 (Homo sapiens, UniProt P50750); test: Affinity chromatography with immobilised compound, PM1 cell lysate, mass spectrometry: CDK9; type: binding; details: compound coupled to ECH-Sepharose
T2 construct: endogenous in cells; host or cells: PM1 cells (lysate)
Method: (§5) Affinity Chromatography Experiments:
(§6) Coupling to epoxy-groups: 500 μl drained epoxy-activated Sepharose 6B (Amersham Biosciences) equilibrated to 50% DMF/0.1M Na2CO3 were resuspended in 1 ml 20 mM Compound 102 or 20 mM Compound 103, respectively, dissolved in 50% DMF (Dimethylfomamid)/0.1 M Na2CO3. 5 μl 10M NaOH was added followed by incubation overnight at 30° C. with permanent shaking in the dark. After washing three times in 1 ml 50% DMF/0.1M Na2CO3 the beads were incubated in 1 ml 1M ethanolamine for 6 h at 30° C. with permanent shaking in the dark followed by the denoted washing steps: 50% DMF/0.1M Na2CO3, then H2O, then 0.1M NaHCO3 pH 8.0/0.5M NaCl followed by 0.1M NaAc pH 4.0/0.1M NaCl and finally three times in chromatography buffer (see below) containing 150 mM NaCl. As control matrix epoxy-activated Sepharose 6B was incubated with 1M ethanolamine and equally treated as described above. The beads were stored in 20% ethanol at 4° C. in the dark.
Carbodiimide coupling: ECH-Sepharose 4B (Amersham Biosciences) was washed according to the manufacturer's instructions and equilibrated to 50% DMF/50% ethanol. 2.5 ml drained beads were resuspended in 5 ml 15 mM Compound 102 or Compound 103, respectively, dissolved in 50% DMF/50% ethanol followed by drop by drop addition of 750 μl 1M 1-ethyl-3-(3-dimethylaminopropyl) carbodiimide hydrochloride (EDC), dissolved in 50% DMF/50% ethanol. […]

[1] = test system: protein kinases of PM1 cell lysates; test: Affinity chromatography with immobilised compound, PM1 cell lysate, mass spectrometry: additional targets; type: binding
Method: as §5, §6
Carbodiimide coupling: ECH-Sepharose 4B (Amersham Biosciences) was washed according to the manufacturer's instructions and equilibrated to 50% DMF/50% ethanol. 2.5 ml drained beads were resuspended in 5 ml 15 mM Compound 102 or Compound 103, respectively, dissolved in 50% DMF/50% ethanol followed by drop by drop addition of 750 μl 1M 1-ethyl-3-(3-dimethylaminopropyl) carbodiimide hydrochloride (EDC), dissolved in 50% DMF/50% ethanol. The suspension was incubated overnight at room temperature with permanent end-over-end rotation and washed three times with 15 ml 50% DMF/50% ethanol prior to the addition of 5 ml 33% DMF/33% ethanol/34% 1M ethanolamine pH 8.0 and 650 μl EDC. After 2 h incubation at room temperature with permanent end-over-end rotation, beads were washed three times with 15 ml 50% DMF/50% ethanol, twice with 15 ml 0.5M NaCl and once with 15 ml 20% ethanol. Control beads were incubated with 5 ml 1M ethanolamine instead of compound and treated equally as described above. The beads were stored in 20% ethanol at 4° C. in the dark.
Affinity Chromatography and Preparative Gel Electrophoresis.
1.25×10^9 PM1 cells were lysed in 15 ml buffer containing 50 mM HEPES pH 7.5, 400 mM NaCl, 0.5% Triton X-100, 1 mM EDTA, 1 mM EGTA, 3 mM MgCl2, 1 mM DTT plus additives (10 mM sodium fluoride, 1 mM orthovanadate, 10 μg/ml aprotinin, 10 μg/ml leupeptin, 1 mM PMSF), cleared by centrifugation and adjusted to 1M NaCl. The filtered lysate was loaded with a flow rate of 100 μl/min on a […] chromatography column containing 500 μl Compound 102 or Compound 103 matrix, respectively, equilibrated to chromatography buffer (20 mM HEPES pH 7.5, 0.25% Triton X-100, 1 mM EDTA, 1 mM EGTA) containing 1M NaCl. […]

CDK5/p35 = biological target: T3, CDK5/p35 (Homo sapiens, UniProt Q00535); test: Kinase assay determining CDK5/p35 activity (selectivity panel); type: biochemical; details: 10 μM of compound, in comparison to DMSO (0% inhibition)
T3 construct: purchased Upsate (Upstate)
Method: as §3, §4, §1

[2] = compound coupled to ECH-Sepharose, mass spectrometry

Sequence of CDK1 (P06493 whole entry, species assumed): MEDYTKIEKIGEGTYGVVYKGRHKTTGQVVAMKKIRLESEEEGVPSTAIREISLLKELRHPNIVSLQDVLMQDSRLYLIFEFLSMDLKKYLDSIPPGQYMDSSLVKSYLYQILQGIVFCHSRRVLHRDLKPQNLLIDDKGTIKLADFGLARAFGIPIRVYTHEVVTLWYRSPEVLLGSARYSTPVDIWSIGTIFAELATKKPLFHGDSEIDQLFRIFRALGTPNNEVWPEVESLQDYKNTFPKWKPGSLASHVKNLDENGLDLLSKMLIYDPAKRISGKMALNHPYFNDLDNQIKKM
Sequence of CDK1 (P14635 whole entry partner, species assumed): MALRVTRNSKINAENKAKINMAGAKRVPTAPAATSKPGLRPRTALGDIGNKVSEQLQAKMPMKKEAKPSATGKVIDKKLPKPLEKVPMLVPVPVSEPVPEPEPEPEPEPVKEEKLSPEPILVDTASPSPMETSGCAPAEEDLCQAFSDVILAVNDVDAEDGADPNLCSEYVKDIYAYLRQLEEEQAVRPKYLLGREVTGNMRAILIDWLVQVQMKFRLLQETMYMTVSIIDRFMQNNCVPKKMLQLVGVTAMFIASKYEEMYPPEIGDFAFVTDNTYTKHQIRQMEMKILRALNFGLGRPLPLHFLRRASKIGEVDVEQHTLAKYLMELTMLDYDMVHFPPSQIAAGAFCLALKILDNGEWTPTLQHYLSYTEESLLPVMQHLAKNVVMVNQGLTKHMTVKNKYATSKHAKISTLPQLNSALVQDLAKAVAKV
Sequence of EGFR (P00533 25-1210, species assumed): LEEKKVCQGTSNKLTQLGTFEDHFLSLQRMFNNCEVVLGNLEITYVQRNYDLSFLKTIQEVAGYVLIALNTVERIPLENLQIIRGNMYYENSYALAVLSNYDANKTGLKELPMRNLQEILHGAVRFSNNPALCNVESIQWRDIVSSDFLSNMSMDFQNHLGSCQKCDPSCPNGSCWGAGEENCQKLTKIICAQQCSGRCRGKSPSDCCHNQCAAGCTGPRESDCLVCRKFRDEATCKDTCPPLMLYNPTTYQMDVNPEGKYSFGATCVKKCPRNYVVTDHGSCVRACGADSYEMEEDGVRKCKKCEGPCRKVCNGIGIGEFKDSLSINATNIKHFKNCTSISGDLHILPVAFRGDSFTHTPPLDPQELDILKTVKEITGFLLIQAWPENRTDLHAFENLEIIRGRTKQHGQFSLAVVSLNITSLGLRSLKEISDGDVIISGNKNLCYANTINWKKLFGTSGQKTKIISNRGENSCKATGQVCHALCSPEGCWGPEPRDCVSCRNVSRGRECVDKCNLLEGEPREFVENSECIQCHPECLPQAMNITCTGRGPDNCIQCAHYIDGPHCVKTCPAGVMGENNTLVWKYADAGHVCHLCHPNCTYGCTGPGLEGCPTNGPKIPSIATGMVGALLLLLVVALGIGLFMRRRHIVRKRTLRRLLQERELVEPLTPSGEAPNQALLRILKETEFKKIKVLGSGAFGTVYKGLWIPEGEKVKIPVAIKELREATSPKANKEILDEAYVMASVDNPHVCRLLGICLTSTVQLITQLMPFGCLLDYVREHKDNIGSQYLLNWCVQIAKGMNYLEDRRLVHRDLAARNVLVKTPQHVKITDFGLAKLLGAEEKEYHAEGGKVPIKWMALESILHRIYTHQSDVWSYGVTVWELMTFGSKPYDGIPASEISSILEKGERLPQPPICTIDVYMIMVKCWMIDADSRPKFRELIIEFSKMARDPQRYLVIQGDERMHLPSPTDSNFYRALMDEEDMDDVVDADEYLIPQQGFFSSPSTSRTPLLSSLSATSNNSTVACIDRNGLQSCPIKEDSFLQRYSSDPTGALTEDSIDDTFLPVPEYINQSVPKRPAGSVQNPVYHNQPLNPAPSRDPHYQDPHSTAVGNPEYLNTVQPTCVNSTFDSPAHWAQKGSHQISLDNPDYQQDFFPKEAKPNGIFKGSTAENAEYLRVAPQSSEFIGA
Sequence of GSK-3β (P49841 whole entry, species assumed): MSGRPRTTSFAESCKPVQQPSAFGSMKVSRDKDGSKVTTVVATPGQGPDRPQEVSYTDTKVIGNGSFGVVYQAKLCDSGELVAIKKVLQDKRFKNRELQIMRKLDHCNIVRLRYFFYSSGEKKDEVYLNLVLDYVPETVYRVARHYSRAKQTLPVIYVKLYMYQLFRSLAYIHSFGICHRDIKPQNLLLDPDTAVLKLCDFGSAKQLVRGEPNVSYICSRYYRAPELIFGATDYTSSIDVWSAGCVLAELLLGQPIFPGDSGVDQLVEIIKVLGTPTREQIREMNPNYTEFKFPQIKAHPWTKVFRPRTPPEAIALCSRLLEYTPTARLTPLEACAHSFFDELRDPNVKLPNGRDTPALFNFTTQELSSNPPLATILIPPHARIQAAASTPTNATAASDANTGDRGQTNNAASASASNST
T2 sequence (P50750 whole entry): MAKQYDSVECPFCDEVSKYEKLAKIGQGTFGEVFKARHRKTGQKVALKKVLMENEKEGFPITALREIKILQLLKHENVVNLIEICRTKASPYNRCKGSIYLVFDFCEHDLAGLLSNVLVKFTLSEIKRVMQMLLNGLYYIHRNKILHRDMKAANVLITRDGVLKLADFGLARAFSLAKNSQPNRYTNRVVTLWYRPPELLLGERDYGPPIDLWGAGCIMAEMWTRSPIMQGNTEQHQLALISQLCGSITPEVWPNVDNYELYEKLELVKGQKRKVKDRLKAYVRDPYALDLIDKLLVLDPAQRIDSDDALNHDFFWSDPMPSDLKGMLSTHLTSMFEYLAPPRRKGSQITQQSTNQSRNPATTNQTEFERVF
T3 sequence (Q00535 whole entry): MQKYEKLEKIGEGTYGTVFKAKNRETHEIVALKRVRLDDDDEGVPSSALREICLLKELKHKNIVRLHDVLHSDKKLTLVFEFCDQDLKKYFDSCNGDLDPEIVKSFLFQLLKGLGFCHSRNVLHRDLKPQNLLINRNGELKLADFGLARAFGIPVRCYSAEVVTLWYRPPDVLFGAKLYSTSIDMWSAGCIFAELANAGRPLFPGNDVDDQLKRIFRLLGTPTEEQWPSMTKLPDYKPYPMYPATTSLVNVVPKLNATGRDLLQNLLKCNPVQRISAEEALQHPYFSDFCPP
T3 sequence (Q15078 whole entry partner): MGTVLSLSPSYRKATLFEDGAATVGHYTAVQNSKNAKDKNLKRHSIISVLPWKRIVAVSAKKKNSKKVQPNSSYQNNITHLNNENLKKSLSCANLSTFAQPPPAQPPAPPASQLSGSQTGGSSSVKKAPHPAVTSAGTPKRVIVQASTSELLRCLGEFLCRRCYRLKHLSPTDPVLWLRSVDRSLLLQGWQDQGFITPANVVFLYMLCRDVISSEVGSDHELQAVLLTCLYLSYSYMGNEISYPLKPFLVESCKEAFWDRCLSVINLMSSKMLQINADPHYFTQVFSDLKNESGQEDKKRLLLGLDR
Sequence of Abl (P00519 whole entry, species assumed): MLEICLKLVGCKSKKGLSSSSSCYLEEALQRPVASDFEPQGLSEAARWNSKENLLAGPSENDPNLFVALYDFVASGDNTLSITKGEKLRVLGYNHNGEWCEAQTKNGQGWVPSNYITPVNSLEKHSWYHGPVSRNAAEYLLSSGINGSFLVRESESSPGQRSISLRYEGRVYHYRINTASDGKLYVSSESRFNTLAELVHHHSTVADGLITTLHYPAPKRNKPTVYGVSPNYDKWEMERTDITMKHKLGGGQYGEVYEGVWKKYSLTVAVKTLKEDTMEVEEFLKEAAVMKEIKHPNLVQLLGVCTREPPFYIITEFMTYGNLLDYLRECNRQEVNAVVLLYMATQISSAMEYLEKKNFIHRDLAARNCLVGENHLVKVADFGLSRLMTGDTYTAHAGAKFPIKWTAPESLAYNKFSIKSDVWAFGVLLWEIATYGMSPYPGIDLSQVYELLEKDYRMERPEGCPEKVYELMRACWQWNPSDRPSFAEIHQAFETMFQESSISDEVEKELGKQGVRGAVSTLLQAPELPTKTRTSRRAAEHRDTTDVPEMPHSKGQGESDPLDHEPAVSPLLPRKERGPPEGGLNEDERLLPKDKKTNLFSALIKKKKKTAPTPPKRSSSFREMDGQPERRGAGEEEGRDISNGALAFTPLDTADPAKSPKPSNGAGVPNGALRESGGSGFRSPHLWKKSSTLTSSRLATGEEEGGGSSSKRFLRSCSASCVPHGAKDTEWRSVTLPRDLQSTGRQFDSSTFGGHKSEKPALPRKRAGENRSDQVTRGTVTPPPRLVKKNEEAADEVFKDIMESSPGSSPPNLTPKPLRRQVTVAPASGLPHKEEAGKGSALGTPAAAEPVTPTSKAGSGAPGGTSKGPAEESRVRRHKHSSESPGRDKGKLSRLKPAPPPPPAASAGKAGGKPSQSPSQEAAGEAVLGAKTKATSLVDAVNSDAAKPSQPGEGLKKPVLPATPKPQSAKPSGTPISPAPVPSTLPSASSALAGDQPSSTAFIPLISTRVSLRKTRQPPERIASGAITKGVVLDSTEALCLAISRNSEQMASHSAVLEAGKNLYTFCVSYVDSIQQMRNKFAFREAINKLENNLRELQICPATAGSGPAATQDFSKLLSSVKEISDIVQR
Sequence of p56 Lck (P06239 whole entry): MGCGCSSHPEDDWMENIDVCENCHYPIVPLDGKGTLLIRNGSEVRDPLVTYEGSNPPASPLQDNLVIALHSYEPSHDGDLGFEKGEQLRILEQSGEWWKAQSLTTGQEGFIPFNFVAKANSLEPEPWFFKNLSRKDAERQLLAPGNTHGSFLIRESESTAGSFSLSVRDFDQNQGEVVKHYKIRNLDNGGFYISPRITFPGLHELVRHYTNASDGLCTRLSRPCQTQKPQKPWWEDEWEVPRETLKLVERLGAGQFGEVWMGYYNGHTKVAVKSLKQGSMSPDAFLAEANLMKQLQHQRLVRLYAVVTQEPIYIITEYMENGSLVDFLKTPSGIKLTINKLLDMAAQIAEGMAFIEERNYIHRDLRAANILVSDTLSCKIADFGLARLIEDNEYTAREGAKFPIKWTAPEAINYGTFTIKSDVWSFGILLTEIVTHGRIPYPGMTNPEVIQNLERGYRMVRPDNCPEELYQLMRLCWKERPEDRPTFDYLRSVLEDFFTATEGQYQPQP

RSK1 (% inhibition) (RSK1)	PDGFR (% inhibition) (PDGFR)	CDK2 inhibition (in words) (CDK2/CyclinA)	CDK1 (% inhibition) (CDK1)	p56 Lck (% inhibition) (p56 Lck)	c-Kit (% inhibition) (c-Kit)	GSK-3β (% inhibition) (GSK-3β)	EGFR (% inhibition) (EGFR)	inhibition at 10 µM (Abl) [%]	isolation of CDK9 out of crude PM1 cell lysates by affinity medium (CDK9)	inhibition at 10 µM (CDK1) [%]	inhibition at 10 µM (CDK5/p35) [%]	inhibition at 10 µM (EGFR) [%]	inhibition at 10 µM (GSK-3β) [%]	Compound	effect on growth of PM1 cells (in words) (PM1 cells)	protein kinases in eluates: CaMK2β, MLK (MRK-alpha), yes, cdc2-like protein kinase (CDC2L5), CrkRS, MAK ([1]; LCMS analysis of eluates)	additional targets bound: CaMK2γ, CaMK2δ, CDK2, MRK-beta (ZAK) [1, 2]	protein kinases in eluates: CaMK2β, GSK3α, CDK2, CrkRS, receptor similar to FGFR-3 ([1]; LCMS analysis of eluates)	additional targets bound: GSK3β, c-Src tyrosine kinase (CSK) [1, 2]
c (inhibition between 50 and 30%: c)	c (inhibition between 50 and 30%: c)	tendency to inhibit potently	a (inhibition greater than 80%: a)	b (inhibition between 80 and 50%: b)	c (inhibition between 50 and 30%: c)	b (inhibition between 80 and 50%: b)	b (inhibition between 80 and 50%: b)							COc1ccccc1-c1cc(Nc2ccc(N3CCCC3=O)cc2)ncn1 [Compound 9]	affect severely				
		tendency to inhibit potently												COC(=O)CN(c1ccc(Nc2cc(-c3ccccc3OC)ncn2)cc1)S(=O)(=O)c1ccc(C)cc1 [Compound 28]	affect severely				
	b (inhibition between 80 and 50%: b)							30 to 50	able to isolate CDK9	50 to 80	> 80	> 80		COc1ccccc1-c1cc(Nc2ccc(NC(=O)CCN)cc2)ncn1 [Compound 102, 3-Amino-N-{4-[6-(2-methoxy-phenyl)-pyrimidin-4-ylamino]-phenyl}-propionamide]		identified	specifically bound		
	c (inhibition between 50 and 30%: c)								able to isolate CDK9	50 to 80	50 to 80	> 80	50 to 80	NCCCOc1ccccc1-c1cc(Nc2ccc(NC(=O)c3ccc(N)cc3)cc2)ncn1 [Compound 103, 4-Amino-N-(4-{6-[2-(3-amino-propoxy)phenyl]-pyrimidin-4-ylamino}-phenyl)-benzamide]				detected	specifically bound
